Data taken from patent US6620839B2, “1,3-disubstituted and 1,3,3-trisubstituted pyrrolidines as histamine-3 receptor ligands and their therapeutic applications” (Abbott Laboratories, priority 2000, dated 2003).

target: T1, histamine-3 receptor (Rattus norvegicus, UniProt Q9QYN8); assay: Histamine-3 receptor binding, (3H)-N-α-methylhistamine displacement in rat cortical membranes; settings: male Sprague-Dawley rat brain cortical membranes; (3H)-N-α-methylhistamine ~0.6 nM; 30 minutes at 25° C.; Cheng-Prusoff
T1 construct: from tissue; host or cells: male Sprague-Dawley rat brain cortex membranes
T1 sequence (Q9QYN8 whole entry): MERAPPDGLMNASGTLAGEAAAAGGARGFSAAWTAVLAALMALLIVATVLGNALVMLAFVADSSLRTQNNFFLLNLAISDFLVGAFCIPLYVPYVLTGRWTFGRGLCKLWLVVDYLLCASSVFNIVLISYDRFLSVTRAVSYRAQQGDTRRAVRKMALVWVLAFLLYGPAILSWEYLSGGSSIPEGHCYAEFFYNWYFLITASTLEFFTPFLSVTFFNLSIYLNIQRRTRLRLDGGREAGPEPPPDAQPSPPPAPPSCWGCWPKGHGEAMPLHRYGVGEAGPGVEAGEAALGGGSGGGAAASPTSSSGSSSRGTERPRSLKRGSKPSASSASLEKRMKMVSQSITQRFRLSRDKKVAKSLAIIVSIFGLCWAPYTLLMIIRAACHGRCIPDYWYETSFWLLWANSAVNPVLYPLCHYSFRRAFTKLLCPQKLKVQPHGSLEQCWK
Procedure: Briefly, male Sprague-Dawley rat brain cortices were homogenized (1 g tissue/10 mL buffer) in 50 mM Tris-HCl/5 mM EDTA containing protease inhibitor cocktail (Calbiochem) using a polytron set at 20,500 rpm. Homogenates were centrifuged for 20 minutes at 40,000×g. The supernatant was decanted, and pellets were weighed. The pellet was resuspended by polytron homogenization in 40 mL 50 mM Tris-HCl/5 mM EDTA with protease inhibitors and centrifuged for 20 minutes at 40,000×g. […] Test compounds were dissolved in DMSO to provide 20 mM solution, serially diluted and then added to the incubation mixtures prior to initiating the incubation assay by addition of the membranes. Thioperamide (3 μM) was used to determine nonspecific binding. Binding incubations were conducted for 30 minutes at 25° C. and terminated by addition of 2 mL of ice cold 50 mM Tris-HCl (pH 7.7) and filtration through 0.3% polyethylenimine-soaked Unifilter plates (Packard). These filters were washed 4 additional times with 2 mL of ice-cold 50 mM Tris-HCl and dried for 1 hour. Radioactivity was determined using liquid scintillation counting techniques. Results were analyzed by Hill transformation and Ki values were determined using the Cheng-Prusoff equation.

Structure (SMILES) | Ki [nM]
N#Cc1ccc(-c2ccc(OCCCN3CC[C@@H](NS(=O)(=O)c4ccccc4C#N)C3)cc2)cc1 [Example 46, 2-cyano-N-((3R)-1-{3-[(4′-cyano[1,1′-biphenyl]-4-yl)oxy]propyl}pyrrolidinyl)benzenesulfonamide] | 103
Cc1cccc(S(=O)(=O)N[C@@H]2CCN(CCCOc3ccc(-c4ccc(C#N)cc4)cc3)C2)c1 [Example 47] | 12
N#Cc1ccc(-c2ccc(OCCCN3CC[C@@H](NS(=O)(=O)c4ccc5ccncc5c4)C3)cc2)cc1 [Example 52] | 15
N#Cc1ccc(-c2ccc(OCCCN3CC[C@@H](NS(=O)(=O)c4ccc(Cl)c(Cl)c4)C3)cc2)cc1 [Example 54, 3,4-dichloro-N-((3R)-1-{3-[(4′-cyano[1,1′-biphenyl]-4-yl)oxy]propyl}pyrrolidinyl)benzenesulfonamide] | 98
O=C(c1ccc(OCCCN2CC[C@@H](NS(=O)(=O)c3ccc(Br)cc3)C2)cc1)C1CC1 [Example 56, 4-bromo-N-((3R)-1-{3-[4-(cyclopropylcarbonyl)phenoxy]propyl}pyrrolidinyl)benzenesulfonamide] | 4.7
O=C(c1ccc(OCCCN2CC[C@@H](NS(=O)(=O)c3ccc(F)cc3)C2)cc1)C1CC1 [Example 57, N-((3R)-1-{3-[4-(cyclopropylcarbonyl)phenoxy]propyl}pyrrolidinyl)-4-fluorobenzenesulfonamide] | 3.6
CC(C)(C)c1ccc(S(=O)(=O)N[C@@H]2CCN(CCCOc3ccc(C(=O)C4CC4)cc3)C2)cc1 [Example 60, 4-tert-butyl-N-((3R)-1-{3-[4-(cyclopropylcarbonyl)phenoxy]propyl}pyrrolidinyl)benzenesulfonamide] | 5.2
O=C(c1ccc(OCCCN2CC[C@@H](NS(=O)(=O)c3cccc(C(F)(F)F)c3)C2)cc1)C1CC1 [Example 62, N-((3R)-1-{3-[4-(cyclopropylcarbonyl)phenoxy]propyl}pyrrolidinyl)-3-(trifluoromethyl)benzenesulfonamide] | 6.4
COc1ccc(OC)c(S(=O)(=O)N[C@@H]2CCN(CCCOc3ccc(C(=O)C4CC4)cc3)C2)c1 [Example 63, N-((3R)-1-{3-[4-(cyclopropylcarbonyl)phenoxy]propyl}pyrrolidinyl)-2,5-dimethoxybenzenesulfonamide] | 12
O=C(c1ccc(OCCCN2CC[C@@H](NS(=O)(=O)c3ccc(F)c(Cl)c3)C2)cc1)C1CC1 [Example 65, 3-chloro-N-((3R)-1-{3-[4-(cyclopropylcarbonyl)phenoxy]propyl}pyrrolidinyl)-4-fluorobenzenesulfonamide] | 5
O=C(c1ccc(OCCCN2CC[C@@H](NS(=O)(=O)c3ccccc3F)C2)cc1)C1CC1 [Example 68, N-((3R)-1-{3-[4-(cyclopropylcarbonyl)phenoxy]propyl}pyrrolidinyl)-2-fluorobenzenesulfonamide] | 2.8
O=C(c1ccc(OCCCN2CC[C@@H](NS(=O)(=O)c3cccc(Cl)c3)C2)cc1)C1CC1 [Example 70, 3-chloro-N-((3R)-1-{3-[4-(cyclopropylcarbonyl)phenoxy]propyl}pyrrolidinyl)benzenesulfonamide] | 3
N#Cc1cccc(S(=O)(=O)N[C@@H]2CCN(CCCOc3ccc(C(=O)C4CC4)cc3)C2)c1 [Example 71, 3-cyano-N-((3R)-1-{3-[4-(cyclopropylcarbonyl)phenoxy]propyl}pyrrolidinyl)benzenesulfonamide] | 2.8
CC(=O)c1ccc(OCCCN2CC[C@@H](NS(=O)(=O)c3ccc(F)cc3F)C2)cc1 [Example 74, N-{(3R)-1-[3-(4-acetylphenoxy)propyl]pyrrolidinyl}-2,4-difluorobenzenesulfonamide] | 5.6
CC(=O)c1ccc(OCCCN2CC[C@@H](NS(=O)(=O)c3cccc4cnccc34)C2)cc1 [Example 75, N-{(3R)-1-[3-(4-acetylphenoxy)propyl]pyrrolidinyl}-5-isoquinolinesulfonamide] | 19
CC(=O)Nc1ccc(S(=O)(=O)N[C@@H]2CCN(CCCOc3ccc(C(C)=O)cc3)C2)cc1Cl [Example 76, N-{4-[({(3R)-1-[3-(4-acetylphenoxy)propyl]pyrrolidinyl}amino)sulfonyl]-2-chlorophenyl}acetamide] | 4.9

The remaining compounds from weak to strong by Ki, led by results:

Ki [nM] | Structure (SMILES)
127 | N#Cc1ccc(-c2ccc(OCCCN3CC[C@@H](NS(=O)(=O)c4ccccc4OC(F)(F)F)C3)cc2)cc1 [Example 45]
60 | N#Cc1ccc(-c2ccc(OCCCN3CC[C@@H](NS(=O)(=O)c4ccc(C(F)(F)F)cc4)C3)cc2)cc1 [Example 48]
60 | N#Cc1ccc(-c2ccc(OCCCN3CC[C@@H](NS(=O)(=O)c4ccc(OC(F)(F)F)cc4)C3)cc2)cc1 [Example 50]
13 | N#Cc1ccc(-c2ccc(OCCCN3CC[C@@H](NS(=O)(=O)c4cccc(F)c4)C3)cc2)cc1 [Example 49]
11 | Cc1ccccc1S(=O)(=O)N[C@@H]1CCN(CCCOc2ccc(C(=O)C3CC3)cc2)C1 [Example 64, N-((3R)-1-{3-[4-(cyclopropylcarbonyl)phenoxy]propyl}pyrrolidinyl)-2-methylbenzenesulfonamide]
9.3 | N#Cc1ccc(-c2ccc(OCCCN3CC[C@@H](NS(=O)(=O)c4ccc(F)cc4F)C3)cc2)cc1 [Example 51]
7.9 | CC(=O)c1ccc(OCCCN2CC[C@@H](NS(=O)(=O)c3cccc(F)c3)C2)cc1 [Example 72, N-{(3R)-1-[3-(4-acetylphenoxy)propyl]pyrrolidinyl}-3-fluorobenzenesulfonamide]
5.3 | CC(=O)c1ccc(OCCCN2CC[C@@H](NS(=O)(=O)c3ccc(Cl)c(Cl)c3)C2)cc1 [Example 77, N-{(3R)-1-[3-(4-acetylphenoxy)propyl]pyrrolidinyl}-3,4-dichlorobenzenesulfonamide]
4.6 | CCc1ccc(S(=O)(=O)N[C@@H]2CCN(CCCOc3ccc(C(=O)C4CC4)cc3)C2)cc1 [Example 66, N-((3R)-1-{3-[4-(cyclopropylcarbonyl)phenoxy]propyl}pyrrolidinyl)-4-ethylbenzenesulfonamide]
4.2 | Cc1ccc(S(=O)(=O)N[C@@H]2CCN(CCCOc3ccc(C(=O)C4CC4)cc3)C2)cc1 [Example 61, N-((3R)-1-{3-[4-(cyclopropylcarbonyl)phenoxy]propyl}pyrrolidinyl)-4-methylbenzenesulfonamide]
3.9 | CC(=O)Nc1ccc(S(=O)(=O)N[C@@H]2CCN(CCCOc3ccc(-c4ccc(C#N)cc4)cc3)C2)cc1Cl [Example 53, N-(2-chloro-4-{[((3R)-1-{3-[(4′-cyano[1,1′-biphenyl]-4-yl)oxy]propyl}pyrrolidinyl)amino]sulfonyl}phenyl)acetamide]
3.9 | O=C(c1ccc(OCCCN2CC[C@@H](NS(=O)(=O)c3ccc(Cl)cc3)C2)cc1)C1CC1 [Example 58, 4-chloro-N-((3R)-1-{3-[4-(cyclopropylcarbonyl)phenoxy]propyl}pyrrolidinyl)benzenesulfonamide]
3 | COc1ccc(S(=O)(=O)N[C@@H]2CCN(CCCOc3ccc(C(=O)C4CC4)cc3)C2)cc1 [Example 59, N-((3R)-1-{3-[4-(cyclopropylcarbonyl)phenoxy]propyl}pyrrolidinyl)-4-methoxybenzenesulfonamide]
2.9 | O=C(c1ccc(OCCCN2CC[C@@H](NS(=O)(=O)c3ccccc3)C2)cc1)C1CC1 [Example 55, N-((3R)-1-{3-[4-(cyclopropylcarbonyl)phenoxy]propyl}pyrrolidinyl)benzenesulfonamide]
